Source: ChEMBL document CHEMBL4422673, “Discovery, synthesis and characterization of a series of (1-alkyl-3-methyl-1H-pyrazol-5-yl)-2-(5-aryl-2H-tetrazol-2-yl)acetamides as novel GIRK1/2 potassium channel activators” (Bioorg Med Chem Lett, 2019)
pEC50: −log10 of the molar value. Active and inactive are the calls of the source. The rule behind the calls is not given here.

Tests used:
[1] = biological target: Kir3.1/Kir3.4 (Homo sapiens) (UniProt P48549+P48544); experiment: Activation of human GIRK1/4 expressed in HEK293 cells co-expressing rat mGlu8 by thallium flux assay relative to control; type: cell-based
Kir3.1/Kir3.2 = biological target: T1, Kir3.1/Kir3.2 (Homo sapiens, UniProt P48051+P48549); experiment: Activation of human GIRK1/2 expressed in HEK293 cells co-expressing rat mGlu8 by thallium flux assay; type: cell-based
T1 sequence (P48549 whole entry): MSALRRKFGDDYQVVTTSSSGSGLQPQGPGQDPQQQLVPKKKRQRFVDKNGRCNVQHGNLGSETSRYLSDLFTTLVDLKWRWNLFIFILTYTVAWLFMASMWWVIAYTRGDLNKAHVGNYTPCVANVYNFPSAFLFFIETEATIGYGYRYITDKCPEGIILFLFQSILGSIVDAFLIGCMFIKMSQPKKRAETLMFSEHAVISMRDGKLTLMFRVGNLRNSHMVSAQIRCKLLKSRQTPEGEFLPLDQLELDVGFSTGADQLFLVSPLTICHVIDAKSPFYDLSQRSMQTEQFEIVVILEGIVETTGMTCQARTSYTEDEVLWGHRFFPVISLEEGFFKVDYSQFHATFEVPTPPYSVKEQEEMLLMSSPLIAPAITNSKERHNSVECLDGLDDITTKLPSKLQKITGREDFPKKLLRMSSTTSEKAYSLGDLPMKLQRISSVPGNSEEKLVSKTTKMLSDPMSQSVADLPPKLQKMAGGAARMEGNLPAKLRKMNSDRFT
T1 sequence (P48051 whole entry): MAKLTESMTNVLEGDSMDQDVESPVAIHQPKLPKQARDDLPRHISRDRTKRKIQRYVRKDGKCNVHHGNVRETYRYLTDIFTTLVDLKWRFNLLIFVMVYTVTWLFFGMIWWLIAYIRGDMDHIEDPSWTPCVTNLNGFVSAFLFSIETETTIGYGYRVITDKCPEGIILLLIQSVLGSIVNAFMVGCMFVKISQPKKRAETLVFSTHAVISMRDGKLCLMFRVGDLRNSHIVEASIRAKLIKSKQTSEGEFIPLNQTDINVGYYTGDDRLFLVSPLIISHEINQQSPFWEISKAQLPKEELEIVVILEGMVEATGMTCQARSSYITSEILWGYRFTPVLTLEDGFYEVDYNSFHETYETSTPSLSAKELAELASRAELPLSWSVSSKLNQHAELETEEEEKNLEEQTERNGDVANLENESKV

Kir3.1/Kir3.4 [2] = biological target: T2, Kir3.1/Kir3.4 (Homo sapiens, UniProt P48544+P48549); experiment: (§1) Activation of human GIRK1/4 expressed in HEK293 cells co-expressing rat mGlu8 by thallium flux assay; type: cell-based
T2 sequence (P48549 whole entry): T1 sequence (P48549 whole entry)
T2 sequence (P48544 whole entry): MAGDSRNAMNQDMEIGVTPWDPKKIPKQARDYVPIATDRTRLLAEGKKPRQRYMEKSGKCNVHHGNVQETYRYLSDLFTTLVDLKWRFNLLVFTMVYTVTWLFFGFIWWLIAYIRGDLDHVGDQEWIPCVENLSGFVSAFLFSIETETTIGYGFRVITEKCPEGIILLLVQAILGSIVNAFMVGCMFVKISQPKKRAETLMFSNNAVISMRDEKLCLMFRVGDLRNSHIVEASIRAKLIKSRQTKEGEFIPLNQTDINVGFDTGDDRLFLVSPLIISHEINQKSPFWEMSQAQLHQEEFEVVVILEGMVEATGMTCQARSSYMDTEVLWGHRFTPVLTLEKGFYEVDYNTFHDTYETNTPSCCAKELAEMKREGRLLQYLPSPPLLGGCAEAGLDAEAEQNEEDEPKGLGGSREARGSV

[3] = biological target: Kir3.1/Kir3.2 (Homo sapiens) (UniProt P48549+P48051); experiment: Activation of human GIRK1/2 expressed in HEK293 cells co-expressing rat mGlu8 by thallium flux assay relative to control; type: cell-based
Kir3.1/Kir3.4 [4] = biological target: T3, Kir3.1/Kir3.4 (Homo sapiens, UniProt P48549+P48544); experiment: as §1; type: cell-based; conditions: hek293
T3 sequence (P48549 whole entry): T1 sequence (P48549 whole entry)
T3 sequence (P48544 whole entry): T2 sequence (P48544 whole entry)

[5] = Fraction unbound in human plasma; type: ADME, cell-free
[6] = Clearance in human liver microsomes
[7] = Stability in mouse plasma; type: ADME, cell-free

Cc1cc(NC(=O)Cn2nnc(-c3ccccn3)n2)n(C2CCCCC2)n1
Emax [1]: > 41% | pEC50 (Kir3.1/Kir3.2): 4.84 | pEC50 (Kir3.1/Kir3.4 [2]): < 4.48 | Emax [3]: 81%

Cc1cccc(-c2nnn(CC(=O)Nc3cc(C)nn3C3CCCCC3)n2)c1
Emax [1]: 63% | pEC50 (Kir3.1/Kir3.2): 6.89 | pEC50 (Kir3.1/Kir3.4 [2]): 6.36 | Emax [3]: 93%

COc1ccc(-c2nnn(CC(=O)Nc3cc(C)nn3C3CCCCC3)n2)cc1
Emax [1]: 65% | pEC50 (Kir3.1/Kir3.2): 6.76 | pEC50 (Kir3.1/Kir3.4 [2]): 6.11 | Emax [3]: 90%

CC1(c2cc(NC(=O)Cn3nnc(-c4ccccc4)n3)n(C3CCCCC3)n2)CC1
Emax [1]: inactive | pEC50 (Kir3.1/Kir3.2): < 5.00 | EC50 (Kir3.1/Kir3.4 [4]): Not Active | Emax [3]: > 10%

Cc1cc(NC(=O)Cn2nnc(-c3ccccc3)n2)n(C2CC2)n1
Emax [1]: > 39% | pEC50 (Kir3.1/Kir3.2): < 5.30 | pEC50 (Kir3.1/Kir3.4 [2]): < 5.00 | Emax [3]: > 78%

Cc1cc(NC(=O)Cn2nnc(-c3ccccc3)n2)n(C2CCS(=O)(=O)CC2)n1
Emax [1]: inactive | pEC50 (Kir3.1/Kir3.2): < 5.00 | EC50 (Kir3.1/Kir3.4 [4]): Not Active | Emax [3]: > 25%

Cc1cc(NC(=O)Cn2ccc(-c3ccccc3)n2)n(C2CCCCC2)n1
Emax [1]: 49% | pEC50 (Kir3.1/Kir3.2): 6.29 | pEC50 (Kir3.1/Kir3.4 [2]): 6.00 | Emax [3]: 88%

Cc1cc(NC(=S)Cn2nnc(-c3ccccc3)n2)n(C2CCCCC2)n1
Emax [1]: 36% | pEC50 (Kir3.1/Kir3.2): 6.21 | pEC50 (Kir3.1/Kir3.4 [2]): 5.90 | Fu [5]: < 0.06% | CLhep predicted [6]: 18.9 mL/min/kg | Stability [7]: Unstable | Emax [3]: 80%

Cc1cc(NC(=O)Cc2coc(-c3ccccc3)n2)n(C2CCCCC2)n1
Emax [1]: 22% | pEC50 (Kir3.1/Kir3.2): < 4.96 | pEC50 (Kir3.1/Kir3.4 [2]): 5.40 | Emax [3]: > 69%

Cc1cc(NC(=O)Cn2nnc(-c3cccnc3)n2)n(C2CCCCC2)n1
Emax [1]: 80% | pEC50 (Kir3.1/Kir3.2): 5.71 | pEC50 (Kir3.1/Kir3.4 [2]): 5.31 | Emax [3]: 96%

Cc1cc(NC(=O)Cn2nnc(-c3cccc(C#N)c3)n2)n(C2CCCCC2)n1
Emax [1]: 55% | pEC50 (Kir3.1/Kir3.2): 6.74 | pEC50 (Kir3.1/Kir3.4 [2]): 6.21 | Emax [3]: 80%

Cc1cc(NC(=O)Cn2nnc(-c3ccnc(F)c3)n2)n(C2CCCCC2)n1
Emax [1]: 68% | pEC50 (Kir3.1/Kir3.2): 6.36 | pEC50 (Kir3.1/Kir3.4 [2]): 5.87 | Emax [3]: 95%

O=C(Cn1nnc(-c2ccccc2)n1)NC1CC2CCC1C2 (configuration not stated)
Emax [1]: 7% | pEC50 (Kir3.1/Kir3.2): 5.70 | pEC50 (Kir3.1/Kir3.4 [2]): 5.56 | Emax [3]: 13%

Cc1cc(NC(=O)Cn2nnc(-c3ccc(Cl)c(C)c3)n2)n(C2CCCCC2)n1
Emax [1]: 51% | pEC50 (Kir3.1/Kir3.2): 6.15 | pEC50 (Kir3.1/Kir3.4 [2]): 5.82 | Emax [3]: 89%

CC1CC1c1cc(NC(=O)Cn2nnc(-c3ccccc3)n2)n(C2CCCCC2)n1 (configuration not stated)
Emax [1]: > 19% | pEC50 (Kir3.1/Kir3.2): 6.07 | pEC50 (Kir3.1/Kir3.4 [2]): < 5.00 | Emax [3]: 78%

O=C(Cn1nnc(-c2ccccc2)n1)Nc1cc(C2CC2)nn1C1CCCCC1
Emax [1]: 15% | pEC50 (Kir3.1/Kir3.2): 6.57 | pEC50 (Kir3.1/Kir3.4 [2]): 6.18 | Emax [3]: 45%

Cc1cc(NC(=O)Cn2nnc(-c3ccccc3)n2)n(C(C)C)n1
Emax [1]: > 96% | pEC50 (Kir3.1/Kir3.2): 6.25 | pEC50 (Kir3.1/Kir3.4 [2]): < 5.40 | Emax [3]: 107%

Cc1cc(NC(=O)Cn2nnc(-c3ccccc3)n2)n(C2CCOCC2)n1
Emax [1]: 109% | pEC50 (Kir3.1/Kir3.2): 6.36 | pEC50 (Kir3.1/Kir3.4 [2]): 5.69 | Emax [3]: 115%

Cc1cc(NC(=O)Cn2nnc(-c3ccccc3)n2)n(C2CCC(C)(C)CC2)n1
Emax [1]: inactive | pEC50 (Kir3.1/Kir3.2): < 6.66 | EC50 (Kir3.1/Kir3.4 [4]): Not Active | Emax [3]: > 19%

Cc1cc(NC(=O)Cn2nnc(-c3cccc(F)n3)n2)n(C2CCCCC2)n1
Emax [1]: > 38% | pEC50 (Kir3.1/Kir3.2): < 5.52 | pEC50 (Kir3.1/Kir3.4 [2]): < 5.00 | Emax [3]: > 83%

Cc1cc(NC(=O)Cn2nnc(C3CC3)n2)n(C2CCCCC2)n1
Emax [1]: > 25% | pEC50 (Kir3.1/Kir3.2): < 5.52 | pEC50 (Kir3.1/Kir3.4 [2]): < 5.00 | Emax [3]: > 68%
